{
  "source": "patent US7589121B2",
  "about": "“Use of furan alkyls for preparing a drug for treating obesity and cosmetically treating overweight” (priority 2004, dated 2009)",
  "key": {"[1]": {"test_system": "mice fattened on a high fat/high sucrose diet (HF/HS)", "test": "Weight gain / weight of mice on HF/HS diet", "type": "in vivo", "details": "curative group; TZD added to HF/HS food", "procedure": "We used adult mice (aged 6 weeks) of masculine gender fattened on a high fat/high sucrose diet (HF/HS). Feeding with the HF/HS diet began on mice aged 6 weeks and continued throughout the period of the study. The study was conducted along 2 axes: • prevention: the product was administered as soon as feeding began with the HF/HS diet; • management (curative): the product was administered 12 weeks after the start of the HF/HS diet. Total treatment time (preventive and curative): 23 weeks.\nEach experimental group comprised 10 mice."}, "ACO (target PPARα)": {"test_system": "ACO (target PPARα)", "test": "Analysis of mRNAs in the liver (Q-RT-PCR): ACO", "type": "in vivo, mice", "details": "TZD", "procedure": "(§1) In the liver, the mRNA expressions of 8 genes were determined in 5 mice of each group using real-time Q-RT-PCR analysis."}, "PEPCK (target PPARγ)": {"test_system": "PEPCK (target PPARγ)", "test": "Analysis of mRNAs in the liver (Q-RT-PCR): PEPCK", "type": "in vivo, mice", "details": "TZD", "procedure": "as §1"}, "[2]": {"test_system": "GSH-S-transferase (target PXR)", "test": "Analysis of mRNAs in the liver (Q-RT-PCR): GSH-S-transferase", "type": "in vivo, mice", "details": "TZD", "procedure": "as §1"}, "CYP7A1": {"test_system": "CYP7A1", "test": "Analysis of mRNAs in the liver (Q-RT-PCR): CYP7A1", "type": "in vivo, mice", "details": "TZD", "procedure": "as §1"}, "[3]": {"test_system": "ME, FAS, ACC (fatty acid synthesis)", "test": "Analysis of mRNAs in the liver (Q-RT-PCR): ME, FAS, ACC", "type": "in vivo, mice", "details": "TZD", "procedure": "as §1"}, "[4]": {"test_system": "PGC-1 (mitochondria biogenesis)", "test": "Analysis of mRNAs in the muscles and BAT: PGC-1", "type": "in vivo, mice", "details": "TZD", "procedure": "In the brown adipose tissue (BAT) and in the muscles, the mRNA expression of 3 genes was determined in 5 mice of each group by real-time Q-RTR-PCR analysis."}},
  "data": [
    {"smiles": "CN(CCOc1ccc(CC2SC(=O)NC2=O)cc1)c1ccccn1", "note": "(stereo not shown) [TZD, Rosiglitazone]", "values": [
      {"measurement": "weight loss of overweight mice", "setting": "[1]", "value": "did not cause the overweight mice to lose weight"},
      {"measurement": "ACO (target PPARα) mRNA, liver", "setting": "ACO (target PPARα)", "value": "⇑"},
      {"measurement": "PEPCK (target PPARγ) mRNA, liver", "setting": "PEPCK (target PPARγ)", "value": "⇑"},
      {"measurement": "GSH-S-transferase (target PXR) mRNA, liver", "setting": "[2]", "value": "⇑"},
      {"measurement": "CYP7A1 (conversion oxysterol into biliary acids) mRNA, liver", "setting": "CYP7A1", "value": "⇑⇑"},
      {"measurement": "ME, FAS, ACC (fatty acid synthesis) mRNA, liver", "setting": "[3]", "value": "⇑⇑"},
      {"measurement": "PGC-1 (mitochondria biogenesis) mRNA, MUSCLE/BAT", "setting": "[4]", "value": "⇑ (muscle)"}
    ]}
  ]
}
